Reference: article PMC5065787 (Bioorganic & medicinal chemistry, 2016)
Values belong to the molecule of their own block, whether it stands above or below them.

Tests used:
[1] = possibly due to cellular lability of the ester moiety; cited from earlier work
dog LOX ortholog = conditions: cited from earlier work
[2] = cited from earlier work
rat LOX ortholog = conditions: cited from earlier work
h15-LOX-1 = conditions: cited from earlier work
[3] = cited from earlier work; remark: listed apart in the source
WT h15-LOX-1 = target: T1, WT h15-LOX-1 (Homo sapiens, UniProt P16050); experiment: Steady-state substrate kinetics, WT; format: biochemical; conditions: error in parentheses
T1 sequence (P16050 1-662): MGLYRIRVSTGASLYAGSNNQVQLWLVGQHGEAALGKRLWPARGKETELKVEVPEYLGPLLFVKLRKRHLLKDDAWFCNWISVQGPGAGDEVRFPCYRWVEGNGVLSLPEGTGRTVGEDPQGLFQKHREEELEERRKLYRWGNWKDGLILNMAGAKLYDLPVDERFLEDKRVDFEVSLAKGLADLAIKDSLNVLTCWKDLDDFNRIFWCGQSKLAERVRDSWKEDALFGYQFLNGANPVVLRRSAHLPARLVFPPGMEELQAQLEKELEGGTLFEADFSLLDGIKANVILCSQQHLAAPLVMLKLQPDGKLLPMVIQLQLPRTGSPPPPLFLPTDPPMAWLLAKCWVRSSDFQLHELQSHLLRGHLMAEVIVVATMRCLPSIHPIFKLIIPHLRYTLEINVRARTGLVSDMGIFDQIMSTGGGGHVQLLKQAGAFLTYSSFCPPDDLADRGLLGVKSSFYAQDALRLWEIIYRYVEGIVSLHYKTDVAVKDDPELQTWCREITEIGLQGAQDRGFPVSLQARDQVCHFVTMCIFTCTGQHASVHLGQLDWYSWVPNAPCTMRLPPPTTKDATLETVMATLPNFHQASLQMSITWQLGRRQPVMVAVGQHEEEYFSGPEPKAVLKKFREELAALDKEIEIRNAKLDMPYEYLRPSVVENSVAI

h15-LOX-1 F414I = target: T2, h15-LOX-1 F414I (Homo sapiens, UniProt P16050, F414I); experiment: Steady-state substrate kinetics, F414I; format: biochemical; conditions: error in parentheses
T2 sequence (P16050 1-662 F414I): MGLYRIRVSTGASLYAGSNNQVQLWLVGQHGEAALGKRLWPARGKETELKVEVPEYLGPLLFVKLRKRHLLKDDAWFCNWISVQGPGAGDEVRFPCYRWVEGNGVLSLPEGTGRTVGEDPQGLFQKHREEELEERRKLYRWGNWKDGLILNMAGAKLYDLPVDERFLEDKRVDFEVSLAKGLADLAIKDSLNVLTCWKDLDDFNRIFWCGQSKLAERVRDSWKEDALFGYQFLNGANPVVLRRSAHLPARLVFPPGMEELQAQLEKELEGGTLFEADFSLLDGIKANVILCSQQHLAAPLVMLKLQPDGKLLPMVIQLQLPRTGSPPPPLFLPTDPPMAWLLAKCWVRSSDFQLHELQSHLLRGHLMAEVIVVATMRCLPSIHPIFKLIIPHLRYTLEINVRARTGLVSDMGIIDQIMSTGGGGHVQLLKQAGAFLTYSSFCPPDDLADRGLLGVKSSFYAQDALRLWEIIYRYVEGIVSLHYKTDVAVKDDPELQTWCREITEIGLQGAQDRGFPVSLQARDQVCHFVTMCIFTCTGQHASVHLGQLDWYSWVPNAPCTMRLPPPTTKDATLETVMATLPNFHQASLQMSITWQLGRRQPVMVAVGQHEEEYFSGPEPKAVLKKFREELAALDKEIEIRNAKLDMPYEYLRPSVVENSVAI

[4] = substrate: CCCCC/C=C\C/C=C\C/C=C\C/C=C\CCCC(=O)O; experiment: Steady-state substrate kinetics, Q547L; format: biochemical, human; conditions: other: Q547L; error in parentheses; unit inferred; pH 7.5
[5] = substrate: CCCCC/C=C\C/C=C\C/C=C\C/C=C\CCCC(=O)O; experiment: Steady-state substrate kinetics, L407A; format: biochemical, human; conditions: other: L407A; error in parentheses; unit inferred; pH 7.5
[6] = substrate: CCCCC/C=C\C/C=C\C/C=C\C/C=C\CCCC(=O)O; experiment: Steady-state substrate kinetics, F414I; format: biochemical, human; conditions: other: F414I; error in parentheses; unit inferred; pH 7.5
[7] = substrate: CCCCC/C=C\C/C=C\C/C=C\C/C=C\CCCC(=O)O; experiment: Steady-state substrate kinetics, F414W; format: biochemical, human; conditions: other: F414W; error in parentheses; unit inferred; pH 7.5
[8] = substrate: CCCCC/C=C\C/C=C\C/C=C\C/C=C\CCCC(=O)O; experiment: Steady-state substrate kinetics, E356Q; format: biochemical, human; conditions: other: E356Q; error in parentheses; unit inferred; pH 7.5

Molecule: O=C(OCC#CCSc1nnc(-c2cccc3ccccc23)o1)c1cccs1 [ML094, 4-(5-(Naphthalen-1-yl)-1,3,4-oxadiazol-2-ylthio)but-2-ynylthiophene-2-carboxylate]
activity in vivo [1]: no activity

Molecule: O=C(Nc1ccc(F)cc1Cl)c1c[nH]nn1 [BLX-2477, N-(2-chloro-4-fluorophenyl)triazole-4-carboxamide]
potency against dog LOX ortholog (dog LOX ortholog): not potent
adverse off-target effects in mini-pigs [2]: adverse off-target effects
potency against rat LOX ortholog (rat LOX ortholog): not potent
potency against h15-LOX-1 (h15-LOX-1): 99 nM

Molecule: CNc1oc(-c2cccc3ccccc23)nc1C#N [ML351, 5-(methylamino)-2-(naphthalene-1-yl)oxazole-4-carbonitrile]
in vivo activity in mice [3]: exhibits in vivo activity

kcat (WT h15-LOX-1; no unit in table (sec^−1)): 11 (0.4)
Km (WT h15-LOX-1; substrate 1-20 µM, unit inferred): 7.7 µM
kcat (h15-LOX-1 F414I; no unit in table (sec^−1)): 1.6 (0.03)
Km (h15-LOX-1 F414I; unit inferred): 6.1 µM
Molecule: CCCCC/C=C\C/C=C\CCCCCCCC(=O)O [LA, linoleic acid]

Molecule: CCCCCc1ccc(S(=O)(=O)NCCc2c(-c3ccc(C(F)(F)F)cc3)[nH]c3ccccc23)cc1 [tryptamine sulfonamide]
potency against h15-LOX-1 (h15-LOX-1): 21 nM

B1: h15-LOX-1 Q547L (Homo sapiens; Q547L) (protein)
chain: MGLYRIRVSTGASLYAGSNNQVQLWLVGQHGEAALGKRLWPARGKETELKVEVPEYLGPLLFVKLRKRHLLKDDAWFCNWISVQGPGAGDEVRFPCYRWVEGNGVLSLPEGTGRTVGEDPQGLFQKHREEELEERRKLYRWGNWKDGLILNMAGAKLYDLPVDERFLEDKRVDFEVSLAKGLADLAIKDSLNVLTCWKDLDDFNRIFWCGQSKLAERVRDSWKEDALFGYQFLNGANPVVLRRSAHLPARLVFPPGMEELQAQLEKELEGGTLFEADFSLLDGIKANVILCSQQHLAAPLVMLKLQPDGKLLPMVIQLQLPRTGSPPPPLFLPTDPPMAWLLAKCWVRSSDFQLHELQSHLLRGHLMAEVIVVATMRCLPSIHPIFKLIIPHLRYTLEINVRARTGLVSDMGIFDQIMSTGGGGHVQLLKQAGAFLTYSSFCPPDDLADRGLLGVKSSFYAQDALRLWEIIYRYVEGIVSLHYKTDVAVKDDPELQTWCREITEIGLQGAQDRGFPVSLQARDQVCHFVTMCIFTCTGQHASVHLGLLDWYSWVPNAPCTMRLPPPTTKDATLETVMATLPNFHQASLQMSITWQLGRRQPVMVAVGQHEEEYFSGPEPKAVLKKFREELAALDKEIEIRNAKLDMPYEYLRPSVVENSVAI
Km [4]: 11 µM

B2: h15-LOX-1 L407A (Homo sapiens; L407A) (protein)
chain: MGLYRIRVSTGASLYAGSNNQVQLWLVGQHGEAALGKRLWPARGKETELKVEVPEYLGPLLFVKLRKRHLLKDDAWFCNWISVQGPGAGDEVRFPCYRWVEGNGVLSLPEGTGRTVGEDPQGLFQKHREEELEERRKLYRWGNWKDGLILNMAGAKLYDLPVDERFLEDKRVDFEVSLAKGLADLAIKDSLNVLTCWKDLDDFNRIFWCGQSKLAERVRDSWKEDALFGYQFLNGANPVVLRRSAHLPARLVFPPGMEELQAQLEKELEGGTLFEADFSLLDGIKANVILCSQQHLAAPLVMLKLQPDGKLLPMVIQLQLPRTGSPPPPLFLPTDPPMAWLLAKCWVRSSDFQLHELQSHLLRGHLMAEVIVVATMRCLPSIHPIFKLIIPHLRYTLEINVRARTGAVSDMGIFDQIMSTGGGGHVQLLKQAGAFLTYSSFCPPDDLADRGLLGVKSSFYAQDALRLWEIIYRYVEGIVSLHYKTDVAVKDDPELQTWCREITEIGLQGAQDRGFPVSLQARDQVCHFVTMCIFTCTGQHASVHLGQLDWYSWVPNAPCTMRLPPPTTKDATLETVMATLPNFHQASLQMSITWQLGRRQPVMVAVGQHEEEYFSGPEPKAVLKKFREELAALDKEIEIRNAKLDMPYEYLRPSVVENSVAI
Km [5]: 5.5 µM

B3: h15-LOX-1 F414I (Homo sapiens; F414I) (protein)
chain: MGLYRIRVSTGASLYAGSNNQVQLWLVGQHGEAALGKRLWPARGKETELKVEVPEYLGPLLFVKLRKRHLLKDDAWFCNWISVQGPGAGDEVRFPCYRWVEGNGVLSLPEGTGRTVGEDPQGLFQKHREEELEERRKLYRWGNWKDGLILNMAGAKLYDLPVDERFLEDKRVDFEVSLAKGLADLAIKDSLNVLTCWKDLDDFNRIFWCGQSKLAERVRDSWKEDALFGYQFLNGANPVVLRRSAHLPARLVFPPGMEELQAQLEKELEGGTLFEADFSLLDGIKANVILCSQQHLAAPLVMLKLQPDGKLLPMVIQLQLPRTGSPPPPLFLPTDPPMAWLLAKCWVRSSDFQLHELQSHLLRGHLMAEVIVVATMRCLPSIHPIFKLIIPHLRYTLEINVRARTGLVSDMGIIDQIMSTGGGGHVQLLKQAGAFLTYSSFCPPDDLADRGLLGVKSSFYAQDALRLWEIIYRYVEGIVSLHYKTDVAVKDDPELQTWCREITEIGLQGAQDRGFPVSLQARDQVCHFVTMCIFTCTGQHASVHLGQLDWYSWVPNAPCTMRLPPPTTKDATLETVMATLPNFHQASLQMSITWQLGRRQPVMVAVGQHEEEYFSGPEPKAVLKKFREELAALDKEIEIRNAKLDMPYEYLRPSVVENSVAI
Km [6]: 11 µM

B4: h15-LOX-1 F414W (Homo sapiens; F414W) (protein)
chain: MGLYRIRVSTGASLYAGSNNQVQLWLVGQHGEAALGKRLWPARGKETELKVEVPEYLGPLLFVKLRKRHLLKDDAWFCNWISVQGPGAGDEVRFPCYRWVEGNGVLSLPEGTGRTVGEDPQGLFQKHREEELEERRKLYRWGNWKDGLILNMAGAKLYDLPVDERFLEDKRVDFEVSLAKGLADLAIKDSLNVLTCWKDLDDFNRIFWCGQSKLAERVRDSWKEDALFGYQFLNGANPVVLRRSAHLPARLVFPPGMEELQAQLEKELEGGTLFEADFSLLDGIKANVILCSQQHLAAPLVMLKLQPDGKLLPMVIQLQLPRTGSPPPPLFLPTDPPMAWLLAKCWVRSSDFQLHELQSHLLRGHLMAEVIVVATMRCLPSIHPIFKLIIPHLRYTLEINVRARTGLVSDMGIWDQIMSTGGGGHVQLLKQAGAFLTYSSFCPPDDLADRGLLGVKSSFYAQDALRLWEIIYRYVEGIVSLHYKTDVAVKDDPELQTWCREITEIGLQGAQDRGFPVSLQARDQVCHFVTMCIFTCTGQHASVHLGQLDWYSWVPNAPCTMRLPPPTTKDATLETVMATLPNFHQASLQMSITWQLGRRQPVMVAVGQHEEEYFSGPEPKAVLKKFREELAALDKEIEIRNAKLDMPYEYLRPSVVENSVAI
Km [7]: 6.5 µM

B5: h15-LOX-1 E356Q (Homo sapiens; E356Q) (protein)
chain: MGLYRIRVSTGASLYAGSNNQVQLWLVGQHGEAALGKRLWPARGKETELKVEVPEYLGPLLFVKLRKRHLLKDDAWFCNWISVQGPGAGDEVRFPCYRWVEGNGVLSLPEGTGRTVGEDPQGLFQKHREEELEERRKLYRWGNWKDGLILNMAGAKLYDLPVDERFLEDKRVDFEVSLAKGLADLAIKDSLNVLTCWKDLDDFNRIFWCGQSKLAERVRDSWKEDALFGYQFLNGANPVVLRRSAHLPARLVFPPGMEELQAQLEKELEGGTLFEADFSLLDGIKANVILCSQQHLAAPLVMLKLQPDGKLLPMVIQLQLPRTGSPPPPLFLPTDPPMAWLLAKCWVRSSDFQLHQLQSHLLRGHLMAEVIVVATMRCLPSIHPIFKLIIPHLRYTLEINVRARTGLVSDMGIFDQIMSTGGGGHVQLLKQAGAFLTYSSFCPPDDLADRGLLGVKSSFYAQDALRLWEIIYRYVEGIVSLHYKTDVAVKDDPELQTWCREITEIGLQGAQDRGFPVSLQARDQVCHFVTMCIFTCTGQHASVHLGQLDWYSWVPNAPCTMRLPPPTTKDATLETVMATLPNFHQASLQMSITWQLGRRQPVMVAVGQHEEEYFSGPEPKAVLKKFREELAALDKEIEIRNAKLDMPYEYLRPSVVENSVAI
Km [8]: 4.1 µM
